Patent US4224448A, “2'-(5'-Nitrofuryl) substituted quinolines” (priority 1966, dated 1980)
Converted amounts (≈) assume the structure as drawn.

Tests used:
Assay in all cases: Minimum inhibitory concentration, conventional tube dilution method
Assay type in all cases: cell-based
[1] = test system: Staph. aureus; settings: Staphylococcus aureus; gram-positive; tube dilution, 37 degrees, 24 hours; between 1 and 6 strains; mg/100 cc; decimal comma; read-out: Minimal Inhibitory Concentration, Staph. aureus
Source text: (§1) The activity of some of the new nitrofuryl quinoline derivatives of the present invention is exemplified in Table 1 against a gram-positive (Staph. aureus), a gram-negative (Salmonella) bacterium and a fungus (Candida albicans). Table 1 indicates the minimum inhibitory concentration of the compound under reference in mg/100 cc required in order to inhibit the growth between 1 and 6 strains of each type. The measurements have been carried out by the conventional tube dilution method at 37 degrees after 24 hours.

[2] = test system: Salmonella; settings: gram-negative, tube dilution, 37 degrees, 24 hours, between 1 and 6 strains, mg/100 cc, decimal comma, read-out: Minimal Inhibitory Concentration, Salm.
Source text: as §1

[3] = test system: Candida albicans; settings: fungus, tube dilution, 37 degrees, 24 hours, between 1 and 6 strains, mg/100 cc, decimal comma, read-out: Minimal Inhibitory Concentration, Cand. Alb.
Source text: as §1

SMILES	MIC [1] [µg/mL]	MIC [2] [µg/mL]	MIC [3] [µg/mL]
CCc1cc(-c2ccc([N+](=O)[O-])o2)c2ccccc2n1 [C2 H5 H NF H H H H, 2-ethyl-4-[2'-(5'-nitrofuryl)]quinoline]	0.1 (≈ 0.373 µM)	> 50	5 (≈ 18.6 µM)
CCN(CC)C(=O)c1cc(-c2ccc([N+](=O)[O-])o2)c2ccccc2n1 [CON(C2 H5)2 H NF H H H H, 4-[2'-(5'-nitrofuryl)]quinoline-2-carboxylic acid diethylamide]	0.5 to 1 (≈ 1.47 to 2.95 µM)	> 50	> 50
O=[N+]([O-])c1ccc(-c2cc(CO)nc3ccccc23)o1 [CH2 OH H NF H H H H, 2-Hydroxymethyl-4-[2'-(5'-nitrofuryl)]quinoline]	0.1 (≈ 0.37 µM)	5 to 10 (≈ 18.5 to 37 µM)	5 (≈ 18.5 µM)
Cc1ccc2c(-c3ccc([N+](=O)[O-])o3)cc(C)nc2c1 [CH3 H NF H H CH3 H, 2,7-dimethyl-4-[2'-(5'-nitrofuryl)]quinoline]	0.05 to 0.1 (≈ 0.186 to 0.373 µM)	2 to 5 (≈ 7.46 to 18.6 µM)	3 (≈ 11.2 µM)
Cc1ccc2c(c1)c(-c1ccc([N+](=O)[O-])o1)cc(C)[n+]2[O-] [O CH3 H NF H CH3 H H]	0.1 (≈ 0.352 µM)	> 25	2 to 5 (≈ 7.04 to 17.6 µM)
Cc1ccc2nc(C(Br)(Br)Br)cc(-c3ccc([N+](=O)[O-])o3)c2c1 [CBr3 H NF H CH3 H H, 2-tribromomethyl-4-[2'-(5'-nitrofuryl)]-6-methyl quinoline]	1 (≈ 1.98 µM)	> 25	> 50
